Measurements published in publication PMC4362760, “JAK2^V617F Drives Mcl-1 Expression and Sensitizes Hematologic Cell Lines to Dual Inhibition of JAK2 and Bcl-xL” (PLoS ONE, 2015).
Values joined by “and” are separate entries in the source; they are usually repeats but may differ in a detail not shown here. Equal entries are not always repeated.

Tests used:
[1] = system: MV4;11 cells; assay: alamarBlue cell viability, JAKi-I/ABT-263 combination, 72 hr, MV4;11; assay type: cell-based; conditions: MV4;11, 72h, Jaki-1 0 uM
Method: (§1) Transfection of siRNAs was performed using Lipofectamine RNAiMAX according to the manufacturer’s recommendations. […] Caspase-3 activity was determined using the Caspase-GLO 3/7 Assay (Promega) in parallel with the CellTiter-GLO viability assay (Promega). The data are expressed as Caspase-3/7 activity divided by cell viability.
(§2) Caspase-3 activity was determined at each time point. Data are from duplicate samples and are representative of at least three independent experiments. (D-G) Cells were treated in combination as indicated, and cell viability was determined after 72 hr. Data are means of duplicate determinations, and are representative of at least three independent experiments. […] Drugs were added simultaneously, and cell viability was determined after 72 hr. The data were then analyzed using the drug-drug interaction model of Bliss additivity^16 to define dose combinations that were synergistic (values >15; red), antagonistic (values <-15; blue), or without effect (-15<values<15; gray). (I) Model of JAK2/Bcl-2 family inhibitor synergy. JAK2^V617F constitutively phosphorylates and activates STAT3/5, thus enforcing expression of the transcriptional target, Mcl-1. Mcl-1 collaborates with Bcl-XL to oppose apoptosis and support viability.
(§3) Supplementary file pone.0114363.s006.xls: S6 Dataset Cells were treated in combination as indicated, and cell viability was determined using alamarBlue after 72 hr. Data are means of duplicate determinations, and are representative of at least three independent experiments. (XLS) Click here for additional data file.

[2] = system: Bim binding to Bcl-XL; assay: Bim immunoblot of lysates and Bcl-XL immunoprecipitates; assay type: cell-based
Method: For immunoprecipitation, lysates were prepared in CHAPS lysis buffer and 2 mg of cell lysate was mixed with at least 8 μg of immunoprecipitating antibody overnight at 4°C. The following day, 30 μl of a Protein A- or Protein G-agarose slurry was added for an additional 2 hr. Immunoprecipitates were washed three times in CHAPS lysis buffer, and heated in 1.5x loading buffer at 95°C for 5 min.
as §2

[3] = system: Caspase-3/7; assay: Caspase-GLO 3/7 Assay, Caspase-3/7 activity divided by cell viability, fold of control; assay type: cell-based; conditions: for caspase-3 activity, single agent: JAKi-I or ABT-263 alone
[4] = system: K562 cells; assay: alamarBlue cell viability, JAKi-I/ABT-263 combination, 72 hr, K562; assay type: cell-based; conditions: K562, 72h, Jaki-1 0 uM
Method: as §1, §2, §3

[5] = target: Wee1 (Homo sapiens, UniProt P30291); assay: TR-FRET Kinome Wee1; assay type: binding; conditions: Wee1 Carna Biosciences .015(Subs Conc)
Description: (§4) (XLS) Click here for additional data file.

[6] = target: STK33 (Homo sapiens, UniProt Q9BYT3); assay: TR-FRET Kinome STK33; assay type: binding; conditions: STK33 Invitrogen .005(Subs Conc)
Description: as §4

[7] = target: CAMKK2 (Homo sapiens, UniProt Q96RR4); assay: TR-FRET Kinome CAMKK2; assay type: binding; conditions: CAMKK2 Invitrogen .03(Subs Conc)
Sequence of CAMKK2 (Q96RR4 whole entry): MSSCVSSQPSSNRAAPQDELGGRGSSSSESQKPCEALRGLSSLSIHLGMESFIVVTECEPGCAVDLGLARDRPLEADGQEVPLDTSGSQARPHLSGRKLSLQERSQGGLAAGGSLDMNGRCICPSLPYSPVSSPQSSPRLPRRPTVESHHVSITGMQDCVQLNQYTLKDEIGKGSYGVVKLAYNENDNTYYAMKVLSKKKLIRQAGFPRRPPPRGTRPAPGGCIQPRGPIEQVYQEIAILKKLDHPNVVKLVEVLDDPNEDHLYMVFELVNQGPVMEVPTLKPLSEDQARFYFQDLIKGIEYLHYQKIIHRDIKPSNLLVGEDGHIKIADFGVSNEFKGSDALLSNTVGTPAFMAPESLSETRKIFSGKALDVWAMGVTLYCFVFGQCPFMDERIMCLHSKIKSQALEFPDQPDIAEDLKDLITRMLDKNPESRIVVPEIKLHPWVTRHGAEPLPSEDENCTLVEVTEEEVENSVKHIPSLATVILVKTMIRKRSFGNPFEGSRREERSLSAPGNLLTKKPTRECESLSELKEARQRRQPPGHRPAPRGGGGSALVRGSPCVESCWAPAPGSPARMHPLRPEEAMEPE
Description: as §4

[8] = system: Bcl-XL mRNA; assay: Bcl-XL mRNA abundance by qPCR in SET-2, UKE-1, HEL, MV4;11, K562 cells; assay type: cell-based; conditions: for BCLxl % Control: treated vs non-treated (100.0); for BCLxl Mean QTY: treated, normalised mRNA quantity by qPCR
Method: Fig 1 Regulation of Mcl-1 and Bcl-XL by JAK2 ^V617F. […] Tyrosine phoshorylation of STAT3 and STAT5 was determined by immunoblotting. […] Constitutive tyrosine phosphorylation of STAT3 and STAT5 was determined by immunoblotting. […] Data represent means +/- standard deviation for two independent determinations each performed in triplicate. […] (G) Quantification of the data shown in (F). Data are expressed as the ratio of intensity of Mcl-1/β-actin for each time point. […] Data are means of duplicate samples and are representative of two independent experiments.
Data represent means +/- standard deviation for two independent determinations each performed in triplicate (data in Summary tab). Individual experimental data in exp 051409 and repeat Mcl1 tabs. (XLS) Click here for additional data file.

[9] = target: EGFR (Homo sapiens, UniProt P00533); assay: TR-FRET Kinome EGFR; assay type: binding; conditions: EGFR Invitrogen .05(Subs Conc)
Description: as §4

[10] = target: IGF1R (Homo sapiens, UniProt P08069); assay: TR-FRET Kinome IGF1R; assay type: binding; conditions: IGF1R Invitrogen .05(Subs Conc)
Sequence of IGF1R (P08069 31-1367): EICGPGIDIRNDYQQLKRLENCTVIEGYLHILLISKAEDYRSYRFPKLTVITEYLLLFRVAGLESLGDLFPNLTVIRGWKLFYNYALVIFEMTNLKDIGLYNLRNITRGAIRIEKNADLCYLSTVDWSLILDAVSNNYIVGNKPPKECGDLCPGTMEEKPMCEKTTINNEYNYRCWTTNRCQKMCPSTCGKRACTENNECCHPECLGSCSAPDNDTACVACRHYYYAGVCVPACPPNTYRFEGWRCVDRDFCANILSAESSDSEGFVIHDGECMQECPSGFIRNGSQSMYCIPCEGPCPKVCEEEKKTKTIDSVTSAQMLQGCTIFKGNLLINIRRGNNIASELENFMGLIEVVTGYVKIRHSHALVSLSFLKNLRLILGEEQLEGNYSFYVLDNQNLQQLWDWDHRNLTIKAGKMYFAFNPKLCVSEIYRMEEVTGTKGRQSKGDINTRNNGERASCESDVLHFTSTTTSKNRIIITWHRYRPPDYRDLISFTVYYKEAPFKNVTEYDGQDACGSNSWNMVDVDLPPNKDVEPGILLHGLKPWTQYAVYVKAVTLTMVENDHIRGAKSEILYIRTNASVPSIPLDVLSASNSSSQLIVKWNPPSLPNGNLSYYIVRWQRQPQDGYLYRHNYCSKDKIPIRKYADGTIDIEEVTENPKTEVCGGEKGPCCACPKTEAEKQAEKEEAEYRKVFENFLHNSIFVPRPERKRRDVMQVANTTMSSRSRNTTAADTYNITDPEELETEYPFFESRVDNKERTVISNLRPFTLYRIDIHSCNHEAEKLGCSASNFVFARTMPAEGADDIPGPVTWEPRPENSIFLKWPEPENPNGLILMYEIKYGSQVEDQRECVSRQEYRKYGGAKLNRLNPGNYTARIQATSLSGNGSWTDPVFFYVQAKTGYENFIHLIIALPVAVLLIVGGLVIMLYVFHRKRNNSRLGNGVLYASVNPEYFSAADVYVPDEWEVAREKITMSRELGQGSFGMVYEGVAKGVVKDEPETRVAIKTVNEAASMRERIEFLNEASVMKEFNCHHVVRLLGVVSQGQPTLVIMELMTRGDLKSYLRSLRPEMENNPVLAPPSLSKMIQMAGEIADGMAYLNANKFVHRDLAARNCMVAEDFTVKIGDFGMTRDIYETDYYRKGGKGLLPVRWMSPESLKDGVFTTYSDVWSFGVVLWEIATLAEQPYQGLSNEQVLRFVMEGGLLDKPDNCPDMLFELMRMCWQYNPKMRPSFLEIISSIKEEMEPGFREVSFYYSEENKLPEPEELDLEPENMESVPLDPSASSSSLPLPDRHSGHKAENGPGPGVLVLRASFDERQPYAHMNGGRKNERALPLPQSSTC
Description: as §4

[11] = target: cdk2 (Homo sapiens, UniProt P24941); assay: TR-FRET Kinome cdk2; assay type: binding; conditions: cdk2 Invitrogen .05(Subs Conc)
Description: as §4

[12] = target: PKG1A (Homo sapiens, UniProt Q13976); assay: TR-FRET Kinome PKG1A; assay type: binding; conditions: PKG1A Millipore .05(Subs Conc)
Description: as §4

[13] = target: MST1 (Homo sapiens, UniProt Q13043); assay: TR-FRET Kinome MST1; assay type: binding; conditions: MST1 Invitrogen .05(Subs Conc)
Sequence of MST1 (Q13043 whole entry): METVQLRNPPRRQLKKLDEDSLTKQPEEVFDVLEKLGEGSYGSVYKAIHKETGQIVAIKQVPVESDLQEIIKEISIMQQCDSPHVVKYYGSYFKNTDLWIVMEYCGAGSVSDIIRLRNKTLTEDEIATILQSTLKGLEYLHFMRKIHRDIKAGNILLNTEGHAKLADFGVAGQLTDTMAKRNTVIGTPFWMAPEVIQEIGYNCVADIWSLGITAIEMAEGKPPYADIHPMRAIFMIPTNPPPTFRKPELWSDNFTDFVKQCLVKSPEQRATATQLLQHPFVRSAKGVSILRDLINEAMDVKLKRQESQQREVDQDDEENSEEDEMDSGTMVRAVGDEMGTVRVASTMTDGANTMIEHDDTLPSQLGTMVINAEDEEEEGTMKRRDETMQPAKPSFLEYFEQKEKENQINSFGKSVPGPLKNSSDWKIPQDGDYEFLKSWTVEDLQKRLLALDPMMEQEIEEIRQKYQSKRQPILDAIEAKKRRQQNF
Description: as §4

[14] = target: MAP2K3 (Homo sapiens, UniProt P46734); assay: TR-FRET Kinome MAP2K3; assay type: binding; conditions: MAP2K3 Invitrogen .075(Subs Conc)
Description: as §4

[15] = target: T1, Syk CatDom (Homo sapiens, UniProt P43405); assay: TR-FRET Kinome Syk CatDom; assay type: binding; conditions: Syk CatDom .006(Subs Conc)
T1 construct: Syk CatDom
Description: as §4

[16] = target: AMPK; assay: TR-FRET Kinome AMPK; assay type: binding, human; conditions: AMPK Invitrogen .1(Subs Conc)
Description: as §4

[17] = target: Rock2 (Homo sapiens, UniProt O75116); assay: TR-FRET Kinome Rock2; assay type: binding; conditions: Rock2 Invitrogen .012(Subs Conc)
Sequence of Rock2 (O75116 whole entry): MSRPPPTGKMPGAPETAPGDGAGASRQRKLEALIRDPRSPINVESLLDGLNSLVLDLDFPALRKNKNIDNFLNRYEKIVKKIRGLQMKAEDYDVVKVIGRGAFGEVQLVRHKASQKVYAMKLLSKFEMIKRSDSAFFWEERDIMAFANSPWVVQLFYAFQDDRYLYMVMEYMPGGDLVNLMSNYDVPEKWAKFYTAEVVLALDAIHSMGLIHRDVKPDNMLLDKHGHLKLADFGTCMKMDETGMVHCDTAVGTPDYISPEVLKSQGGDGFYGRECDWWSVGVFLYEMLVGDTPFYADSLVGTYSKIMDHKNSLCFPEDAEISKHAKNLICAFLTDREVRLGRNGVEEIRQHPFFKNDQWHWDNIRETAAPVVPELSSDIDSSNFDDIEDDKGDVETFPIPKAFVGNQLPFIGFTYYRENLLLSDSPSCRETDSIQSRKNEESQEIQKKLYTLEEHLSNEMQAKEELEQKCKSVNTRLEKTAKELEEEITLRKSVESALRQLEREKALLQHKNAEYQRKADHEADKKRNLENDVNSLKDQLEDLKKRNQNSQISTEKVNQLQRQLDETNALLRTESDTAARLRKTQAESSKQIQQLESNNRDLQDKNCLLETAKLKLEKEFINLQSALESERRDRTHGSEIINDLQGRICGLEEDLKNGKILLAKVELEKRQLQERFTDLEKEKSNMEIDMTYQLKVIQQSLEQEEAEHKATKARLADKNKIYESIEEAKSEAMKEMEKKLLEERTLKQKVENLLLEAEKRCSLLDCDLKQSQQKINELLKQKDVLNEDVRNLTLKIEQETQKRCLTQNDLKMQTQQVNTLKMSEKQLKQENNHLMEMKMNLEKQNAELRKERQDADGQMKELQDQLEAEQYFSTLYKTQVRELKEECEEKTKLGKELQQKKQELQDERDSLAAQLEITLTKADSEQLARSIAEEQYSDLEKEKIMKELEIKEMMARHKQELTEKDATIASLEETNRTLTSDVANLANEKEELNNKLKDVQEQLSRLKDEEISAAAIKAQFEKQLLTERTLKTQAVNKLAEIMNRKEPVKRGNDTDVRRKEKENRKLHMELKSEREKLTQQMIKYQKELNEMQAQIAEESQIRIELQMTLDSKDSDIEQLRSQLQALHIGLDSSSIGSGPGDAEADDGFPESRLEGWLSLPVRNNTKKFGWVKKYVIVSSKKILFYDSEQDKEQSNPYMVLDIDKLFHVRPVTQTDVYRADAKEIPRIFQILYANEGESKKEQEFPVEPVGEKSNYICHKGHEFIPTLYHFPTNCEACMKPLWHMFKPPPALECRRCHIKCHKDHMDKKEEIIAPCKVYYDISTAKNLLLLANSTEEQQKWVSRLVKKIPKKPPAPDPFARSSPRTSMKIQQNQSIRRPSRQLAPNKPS
Description: as §4

[18] = target: DYRK1B (Homo sapiens, UniProt Q9Y463); assay: TR-FRET Kinome DYRK1B; assay type: binding; conditions: DYRK1B Invitrogen .05(Subs Conc)
Description: as §4

[19] = target: BRAF (Homo sapiens, UniProt P15056); assay: TR-FRET Kinome BRAF; assay type: binding; conditions: BRAF Invitrogen .065(Subs Conc)
Sequence of BRAF (P15056 whole entry): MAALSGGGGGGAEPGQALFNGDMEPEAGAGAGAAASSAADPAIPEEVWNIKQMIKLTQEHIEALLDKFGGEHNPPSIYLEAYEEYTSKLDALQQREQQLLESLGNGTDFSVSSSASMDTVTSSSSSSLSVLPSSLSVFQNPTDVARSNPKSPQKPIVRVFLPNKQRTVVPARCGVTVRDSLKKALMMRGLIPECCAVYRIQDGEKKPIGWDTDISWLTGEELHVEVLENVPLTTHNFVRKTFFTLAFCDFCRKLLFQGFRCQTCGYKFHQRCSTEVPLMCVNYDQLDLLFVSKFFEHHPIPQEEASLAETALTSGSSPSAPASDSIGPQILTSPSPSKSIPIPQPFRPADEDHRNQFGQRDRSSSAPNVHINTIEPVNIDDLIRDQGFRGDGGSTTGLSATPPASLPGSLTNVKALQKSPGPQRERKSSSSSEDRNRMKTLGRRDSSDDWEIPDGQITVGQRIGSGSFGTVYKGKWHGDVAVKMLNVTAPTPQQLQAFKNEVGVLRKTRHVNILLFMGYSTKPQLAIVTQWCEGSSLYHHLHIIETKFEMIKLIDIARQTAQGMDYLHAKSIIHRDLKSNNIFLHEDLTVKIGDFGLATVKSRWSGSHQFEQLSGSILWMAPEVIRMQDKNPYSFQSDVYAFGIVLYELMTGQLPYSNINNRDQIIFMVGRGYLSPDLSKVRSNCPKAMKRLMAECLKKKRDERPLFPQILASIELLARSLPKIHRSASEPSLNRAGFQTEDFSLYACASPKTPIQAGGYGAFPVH
Description: as §4

[20] = target: SGK1 (Homo sapiens, UniProt O00141); assay: TR-FRET Kinome SGK1; assay type: binding; conditions: SGK1 Millipore .1(Subs Conc)
Sequence of SGK1 (O00141 whole entry): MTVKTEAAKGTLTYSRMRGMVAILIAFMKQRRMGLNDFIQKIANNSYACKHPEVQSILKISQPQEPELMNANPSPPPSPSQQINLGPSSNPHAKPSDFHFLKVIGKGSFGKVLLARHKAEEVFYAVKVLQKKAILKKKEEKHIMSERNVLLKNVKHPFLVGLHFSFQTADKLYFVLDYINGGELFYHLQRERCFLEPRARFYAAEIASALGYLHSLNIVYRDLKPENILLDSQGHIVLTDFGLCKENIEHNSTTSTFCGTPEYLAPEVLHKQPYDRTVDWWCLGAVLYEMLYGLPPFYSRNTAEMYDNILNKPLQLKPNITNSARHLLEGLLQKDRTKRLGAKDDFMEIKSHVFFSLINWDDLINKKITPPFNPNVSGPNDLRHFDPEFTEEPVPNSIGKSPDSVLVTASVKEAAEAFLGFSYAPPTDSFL
Description: as §4

SMILES: CC1(C)CCC(c2ccc(Cl)cc2)=C(CN2CCN(c3ccc(C(=O)NS(=O)(=O)c4ccc(N[C@H](CCN5CCOCC5)CSc5ccccc5)c(S(=O)(=O)C(F)(F)F)c4)cc3)CC2)C1 [ABT-263]
- Viability (% Inhibiton) ([1]; ABT-263 0.003 uM): 0%
- Viability (% Inhibiton) ([1]; ABT-263 0.01 uM): 1%
- Viability (% Inhibiton) ([1]; ABT-263 0.03 uM): 0%
- Viability (% Inhibiton) ([1]; ABT-263 0.1 uM): 23%
- Viability (% Inhibiton) ([1]; ABT-263 0.3 uM): 30%
- Viability (% Inhibiton) ([1]; ABT-263 1 uM): 29%
- Bim binding to Bcl-XL ([2]; 0.15 μM ABT-263, 3 hr, irrespective of JAK2 mutational status): displaced
- caspase-3 activity, combination ([3]; JAKi-I 6 hr pretreatment followed by ABT-263, within four hours, cell lines harboring JAK2 V617F): synergistic induction
- caspase-3 activity, single agent [3]: neither JAKi-I nor ABT-263 alone induced caspase-3 activity
- Viability (% Inhibiton) ([4]; ABT-263 0.003 uM): 0%
- Viability (% Inhibiton) ([4]; ABT-263 0.01 uM): 0%
- Viability (% Inhibiton) ([4]; ABT-263 0.03 uM): 0%
- Viability (% Inhibiton) ([4]; ABT-263 0.1 uM): 0%
- Viability (% Inhibiton) ([4]; ABT-263 0.3 uM): 10%
- Viability (% Inhibiton) ([4]; ABT-263 1 uM): 19%

SMILES: CC(C)(C)c1nc2c3cc[nH]c(=O)c3c3cc(F)ccc3c2[nH]1 [JAKi-I, JAK inhibitor I]
- Ki [5]: > 3640 nM
- Ki [6]: 30.2 nM
- Ki [7]: > 3100 nM
- BCLxl % Control ([8]; HEL cells): 30.4093%
- BCLxl Mean QTY ([8]; HEL cells): 76.1
- BCLxl % Control ([8]; K562 cells): 93.9154%
- BCLxl Mean QTY ([8]; K562 cells): 98.4
- BCLxl % Control ([8]; MV411 cells): 101.412%
- BCLxl Mean QTY ([8]; MV411 cells): 30.8
- BCLxl % Control ([8]; SET2 cells): 19.4966%
- BCLxl Mean QTY ([8]; SET2 cells): 62.5
- Bcl-XL transcript level ([8]; following JAK inhibition, 6 hr): sharply declined
- Ki [9]: > 1670 nM
- Ki [10]: > 2650 nM
- Ki [11]: > 3240 nM
- Ki [12]: > 3630 nM
- Ki [13]: 28 nM and 29.5 nM
- Ki [14]: > 3100 nM
- abundance of total Bim protein ([2]; 1 μM JAKi-I, 6 hr, HEL and K562 lysates): not altered
- Bim in Bcl-XL immunoprecipitates ([2]; 1 μM JAKi-I, 6 hr, in the presence of the JAK2 V617F mutation): enriched
- caspase-3 activity, single agent [3]: neither JAKi-I nor ABT-263 alone induced caspase-3 activity
- Ki [15]: > 3260 nM
- Ki [16]: 148 nM
- Ki [17]: > 3330 nM
- Ki [18]: > 2650 nM
- Ki [19]: > 3370 nM
- Ki [20]: 626 nM
